Earlier results as cited in patent US20160143861A1, “COMPOSITIONS COMPRISING HYDROXYTYROSOL, RESVERATROL, LYCOPENE, FLAVANOLS, AND/OR FLAVONOIDS AND USE THEREOF” (SPECIALTY NUTRITION GROUP, INC., priority 2013, published 2016).

In the case of `OCCc1ccc(O)c(O)c1` [Hydroxytyrosol], the “time of peak plasma concentration after ingestion” value is listed as 5 to 10 min.
